Data from the supplement of paper PMC11208160.

experiment: recombinant barcode read abundance after kanamycin selection (control-corrected) (log10(CPM+1)); higher = more efficient recombination; sequences stand for … in AGTGCAGAGAAAATCGGCCAGTTTTCTCTGCCTGCAGTCCGCATGCCGT…AGATTTATGCAGCGGACTGCCTTTCTCCCAAAGTGATAAACCGGACAGTATCATGGACCGGTTTTCCCGGTAATCCGTATTTGCAAGGTTGGTTTCACT; site = the 11-nt target
How it was run: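 Pooled oligos, each joining a target to an IS621 bridge RNA target-binding loop, were cloned and co-electroporated with a donor plasmid into E. coli. Selective plates carried chloramphenicol/ampicillin/kanamycin and 0.1 mM IPTG, while chloramphenicol/ampicillin LB agar served as control, with two replicates of each. Recombination efficiency rests on averaged, control-corrected counts per million of barcodes at recombinant junctions, shown as log10(CPM+1).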
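Note: IS621 recombinase and bridge RNA in Escherichia coli cells.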

| Sequence | recombinant barcode read abundance (log10) |
| --- | --- |
| TACTCAACTTGGGTTCTAACCTGTTGCCT (site TACTCAACTAG) | 0.0463 |
| ATGGTGCCTTGGGTTCTAACCTGTTGCCT (site ATGGTGGCTAG) | 0.417 |
| AGTGTCACTTGGGTTCTAACCTGTTGCGG (site GTGCAACCTAG) | 0.0283 |
| CAGTGAACTTGGGTTCTAACCTGTTGCCT (site CTGTGAACTAG) | 0.0273 |
| CTATATACTTGGGTTCTAACCTGTTGCCA (site CTATATACTTG) | 0.154 |
| TAACCCACTTGGGTTCTAACCTGTTGCCT (site TAACCCACTAG) | 1.1 |
| TAAACAGCTTGGGTTCTAACCTGTTGCCT (site TAGACAGCTAG) | 0.171 |
| AATCGAGCTTGGGTTCTAACCTGTTGCGG (site AATCGAGCTCC) | 1.82 |
| ATGCGAGCTTGGGTTCTAACCTGTTGCCG (site ATGCGAGCTCT) | 0.404 |
| TCCGAGACTTGGGTTCTAACCTGTTGCCC (site TCCGAGACTAG) | 0.146 |
| ACAATGTCTTGGGTTCTAACCTGTTGCGG (site ACACTGTCTCC) | 0.148 |
| AATGTACCTTGGGTTCTAACCTGTTGCCT (site CATGTACCTAG) | 0.45 |
| CGAGGGCCTTGGGTTCTAACCTGTTGCCT (site CGAGGGACTAG) | 0.049 |
| GGCCGTCCTTGGGTTCTAACCTGTTGCAG (site ACCCGTCCTCT) | 0.184 |
| GCATCGGCTTGGGTTCTAACCTGTTGCCT (site GCATCGGCTAG) | 1.22 |
| GCAGCGACTTGGGTTCTAACCTGTTGCCT (site GCTGCGACTAG) | 0.194 |
| TAATGATCTTGGGTTCTAACCTGTTGCCT (site TATTGATCTAG) | 0.155 |
| ACTAGGACTTGGGTTCTAACCTGTTGCGA (site ACTAGGACTAC) | 0.0787 |
| GAATCTACTTGGGTTCTAACCTGTTGCCT (site GGATCTACTAG) | 0.896 |
| GGAATGACTTGGGTTCTAACCTGTTGCCT (site GGAATGACTAG) | 2.02 |
| CGACAATCTTGGGTTCTAACCTGTTGCTT (site TCTAGGACTTT) | 0.27 |
| TCCTGGCCTTGGGTTCTAACCTGTTGCCT (site TCCTGGCCTAG) | 0.117 |

| Sequence | recombinant barcode read abundance (log10) |
| --- | --- |
| CGTCTAGCTTGGGTTCTAACCTGTTGCAT (site CGTCTAGCTAT) | 0.255 |
| GTTGCGGCTTGGGTTCTAACCTGTTGCCT (site GTTCCGGCTAG) | 0.0471 |
| GGGGCGTCTTGGGTTCTAACCTGTTGCTG (site GGGGCGTCTCA) | 2.44 |
| CGCGTAACTTGGGTTCTAACCTGTTGCCT (site CGCGCAACTAG) | 0.112 |
| GATTCTACTTGGGTTCTAACCTGTTGCGT (site GATTCTACTAC) | 0.0518 |
| GTATCATCTTGGGTTCTAACCTGTTGCCT (site GTATCATCTAG) | 0.52 |
| GTCGTAGCTTGGGTTCTAACCTGTTGCCT (site GGCGTAGCTAG) | 0.116 |
| GTCGGCACTTGGGTTCTAACCTGTTGCCT (site GTCGGTACTAG) | 0.221 |
| ATTAATCCTTGGGTTCTAACCTGTTGCCT (site ATTAAATCTAG) | 0.441 |
| GGTCGGACTTGGGTTCTAACCTGTTGCCA (site GGTCGGACTTG) | 0.548 |
| GATCGAGCTTGGGTTCTAACCTGTTGCGA (site GATCGAGCTTC) | 0.921 |
| ATTTCGACTTGGGTTCTAACCTGTTGCCT (site AATTCGACTAG) | 0.0716 |
| TAGTCCTCTTGGGTTCTAACCTGTTGCTC (site TAGTCCTCTAA) | 0.0149 |
| AATTAGCCTTGGGTTCTAACCTGTTGCCT (site GTGAGCACTTA) | 0.185 |
| CACTTCCCTTGGGTTCTAACCTGTTGCAT (site CACTTCCCTAA) | 0.0158 |
| ACACCACCTTGGGTTCTAACCTGTTGCCT (site AGACCACCTAG) | 0.179 |
| CCACTGCCTTGGGTTCTAACCTGTTGCCT (site CCACTTCCTAG) | 0.0699 |
| CCAGTATCTTGGGTTCTAACCTGTTGCAT (site TAGCGGCCTCC) | 0.0866 |
| TATCCGACTTGGGTTCTAACCTGTTGCCA (site TATCCGACTTG) | 0.135 |
| AGGCGCCCTTGGGTTCTAACCTGTTGCAT (site AGGCGCCCTAT) | 1.29 |
| GGTGCGGCTTGGGTTCTAACCTGTTGCCT (site GGTGCGGCTAG) | 0.494 |
| AAAGGTCCTTGGGTTCTAACCTGTTGCAG (site CTTTAGTCTTA) | 0.0927 |

| Sequence | recombinant barcode read abundance (log10) |
| --- | --- |
| GAGGCGGCTTGGGTTCTAACCTGTTGCTT (site GAGCCGGCTAA) | 0.149 |
| ACCTGCCCTTGGGTTCTAACCTGTTGCCT (site ACCTGCCCTAG) | 1.38 |
| CACACCGCTTGGGTTCTAACCTGTTGCCT (site CACACCGCTAG) | 1.62 |
| ATATGCGCTTGGGTTCTAACCTGTTGCCG (site ATATGCGCTCG) | 1.43 |
| AAAGGTCCTTGGGTTCTAACCTGTTGCAG (site AAAGGTCCTCT) | 2.69 |
| TAGCATGCTTGGGTTCTAACCTGTTGCAA (site TAGCATGCTTT) | 0.324 |
| CTGCGCCCTTGGGTTCTAACCTGTTGCCT (site CTGTGCCCTAG) | 0.567 |
| ACGAATCCTTGGGTTCTAACCTGTTGCTT (site ACGACTCCTAA) | 0.0122 |
| GCAGTAGCTTGGGTTCTAACCTGTTGCCA (site GCAGTAGCTTG) | 0.382 |
| AAGCCGCCTTGGGTTCTAACCTGTTGCTT (site AAGCCGCCTAA) | 0.906 |
| AGGGTGTCTTGGGTTCTAACCTGTTGCTG (site AGGGTGTCTCA) | 2.55 |
| TCATGAACTTGGGTTCTAACCTGTTGCCT (site TCATGAACTAG) | 0.256 |
| GGTTGTCCTTGGGTTCTAACCTGTTGCGG (site GGTTGGCCTCC) | 0.109 |
| TTGGTACCTTGGGTTCTAACCTGTTGCCT (site TTGGTTCCTAG) | 0.116 |
| TCCGTCCCTTGGGTTCTAACCTGTTGCTG (site TCCGTACCTCG) | 0.0427 |
| ATCGCCTCTTGGGTTCTAACCTGTTGCCT (site ATCGCCTCTAG) | 0.742 |
| AGTAAGACTTGGGTTCTAACCTGTTGCGT (site AGTAAGACTAT) | 1.22 |
| TACTCAACTTGGGTTCTAACCTGTTGCCT (site TACTTAACTAG) | 0 |
| CCTTTGACTTGGGTTCTAACCTGTTGCTT (site CCTTTGACTAA) | 0.0825 |
| TATGGGACTTGGGTTCTAACCTGTTGCCT (site TATCGCACTAG) | 0.0772 |
| CTGTCGCCTTGGGTTCTAACCTGTTGCCT (site CTGTCGCCTAG) | 0.276 |
| GTTTCAACTTGGGTTCTAACCTGTTGCGT (site GTTTCAACTAC) | 0.729 |

| Sequence | recombinant barcode read abundance (log10) |
| --- | --- |
| CTCGTAACTTGGGTTCTAACCTGTTGCCT (site CTCGTTACTAG) | 1.13 |
| CTAATGTCTTGGGTTCTAACCTGTTGCCA (site CTAATGTCTTG) | 0.26 |
| ATGAAGCCTTGGGTTCTAACCTGTTGCTT (site ATGAAGCCTAA) | 0.107 |
| GACTTGACTTGGGTTCTAACCTGTTGCCT (site GACTTGACTAG) | 1.13 |
| CGGCTCCCTTGGGTTCTAACCTGTTGCTT (site CGGCTCCCTAA) | 1.24 |
| TGGAGCCCTTGGGTTCTAACCTGTTGCAT (site TGGAGCCCTTT) | 0.15 |
| TATAGCTCTTGGGTTCTAACCTGTTGCCT (site AATAGCTCTAG) | 0.0791 |
| TGCGCTACTTGGGTTCTAACCTGTTGCCT (site TGCGCTACTAG) | 0.25 |
| TGTAAGACTTGGGTTCTAACCTGTTGCTG (site TGTAAGACTCA) | 0.505 |
| AGGTACACTTGGGTTCTAACCTGTTGCAC (site AGGTACACTGT) | 2.22 |
| ATCCACCCTTGGGTTCTAACCTGTTGCGG (site ATCCACCCTCC) | 3.07 |
| CCTCTGCCTTGGGTTCTAACCTGTTGCCT (site CCTCTGCCTAG) | 0.855 |
| AAGGCCGCTTGGGTTCTAACCTGTTGCCT (site AAGGCCGCTAG) | 1.79 |
| TAGATCCCTTGGGTTCTAACCTGTTGCTT (site TAGAACCCTAA) | 0.245 |
| ACGACTCCTTGGGTTCTAACCTGTTGCTT (site ACGACTCCTAA) | 0.0167 |
| ACATTGTCTTGGGTTCTAACCTGTTGCGG (site ACATTGTCTCC) | 1.1 |
| ATCCATCCTTGGGTTCTAACCTGTTGCCT (site ATCCACCCTAG) | 0.0821 |
| ATCGAGTCTTGGGTTCTAACCTGTTGCCT (site ATCGAGTCTAG) | 1.56 |
| GAACGCTCTTGGGTTCTAACCTGTTGCTT (site GAACGCTCTAA) | 0.876 |
| CAAAGTCCTTGGGTTCTAACCTGTTGCGT (site CAAAGTCCTAA) | 0.128 |
